Values after ≈ are worked out from the molar mass of the structure shown. Where a SMILES comes first, the peptide text is derived from it. Side-chain parts run from the residue outwards. [ ]: non-standard residue; d: D form. The star is where a group is joined. Lys(α,ε-(ArgTrp)2) = N=C(N)NCCC[C@H](N)C(=O)N[C@@H](Cc1c[nH]c2ccccc12)C(=O)NCCCC[C@H](NC(=O)[C@H](Cc1c[nH]c2ccccc12)NC(=O)[C@@H](N)CCCNC(=N)N)C(=O)*; NHBn = c1ccc(CN*)cc1; OBn = c1ccc(CO*)cc1; X1 = CCCCCCCCCN*; βAla = NCCC(=O)O
Tested on: E. faecalis (29212)
Conditions: 29212

Structure (SMILES) | MIC50 E. faecalis
N=C(N)NCCC[C@H](N)C(=O)N[C@@H](Cc1c[nH]c2ccccc12)C(=O)NCCCC[C@H](NC(=O)[C@H](Cc1c[nH]c2ccccc12)NC(=O)[C@@H](N)CCCNC(=N)N)C(=O)NCCCC[C@H](NC(=O)[C@H](CCCCNC(=O)[C@H](Cc1c[nH]c2ccccc12)NC(=O)[C@@H](N)CCCNC(=N)N)NC(=O)[C@H](Cc1c[nH]c2ccccc12)NC(=O)[C@@H](N)CCCNC(=N)N)C(=O)NCCC(=O)NCc1ccccc1 [(RW)4D-Benzyl amine] (H-RWK([Trp-Arg])K(Lys(α,ε-(ArgTrp)2))[βAla]-NHBn) | 5.1 µg/mL (≈ 2.64 µM)
N=C(N)NCCC[C@H](N)C(=O)N[C@@H](Cc1c[nH]c2ccccc12)C(=O)NCCCC[C@H](NC(=O)[C@H](Cc1c[nH]c2ccccc12)NC(=O)[C@@H](N)CCCNC(=N)N)C(=O)NCCCC[C@H](NC(=O)[C@H](CCCCNC(=O)[C@H](Cc1c[nH]c2ccccc12)NC(=O)[C@@H](N)CCCNC(=N)N)NC(=O)[C@H](Cc1c[nH]c2ccccc12)NC(=O)[C@@H](N)CCCNC(=N)N)C(=O)NCCC(=O)OCc1ccccc1 [(RW)4D-Benzyl ester] (H-RWK([Trp-Arg])K(Lys(α,ε-(ArgTrp)2))[βAla]-OBn) | 6.7 µg/mL (≈ 3.47 µM)
CCCCCCCCCNC(=O)CCNC(=O)[C@H](CCCCNC(=O)[C@H](CCCCNC(=O)[C@H](Cc1c[nH]c2ccccc12)NC(=O)[C@@H](N)CCCNC(=N)N)NC(=O)[C@H](Cc1c[nH]c2ccccc12)NC(=O)[C@@H](N)CCCNC(=N)N)NC(=O)[C@H](CCCCNC(=O)[C@H](Cc1c[nH]c2ccccc12)NC(=O)[C@@H](N)CCCNC(=N)N)NC(=O)[C@H](Cc1c[nH]c2ccccc12)NC(=O)[C@@H](N)CCCNC(=N)N [(RW)4D-Nonylamine] (H-RWK([Trp-Arg])K(Lys(α,ε-(ArgTrp)2))[βAla]-X1) | 5.7 µg/mL (≈ 2.9 µM)

Reference: US7902327B2, “Dendrimeric peptides, pharmaceutical compositions and methods of using the same” (New York University School of Medicine, priority 2007, dated 2011)
